Common to all, as to type: functional, organism-based
In test [1] the test system is Plasmodium falciparum. The test can be described thus: Antimalarial activity against chloroquine-sensitive Plasmodium falciparum D10 transfected in human type A-positive RBC cells assessed reduction in parasite growth by measuring LDH activity incubated for 72 hrs by spectrophotometric analysis.
The subject of test [2] is Plasmodium falciparum. The test can be described thus: Antimalarial activity against chloroquine-resistant Plasmodium falciparum W2 transfected in human type A-positive RBC cells assessed reduction in parasite growth by measuring LDH activity incubated for 72 hrs by spectrophotometric analysis.
Test [3] concerns Plasmodium falciparum. The test can be described thus: Antimalarial activity against Plasmodium falciparum 3D7 infected in human A positive erythrocytes assessed as reduction in parasite growth incubated for 24 hrs by [3H]hypoxanthine based scintillation counting analysis. The note with it: 3D7, Erythrocyte.
Test [4] relates to Plasmodium falciparum. The test can be described thus: Antimalarial activity against chloroquine-resistant Plasmodium falciparum K1 infected in human A positive erythrocytes assessed as reduction in parasite growth incubated for 24 hrs by [3H]hypoxanthine based scintillation counting analysis. The conditions noted are these: K1, Erythrocyte.
Test [5] concerns Plasmodium falciparum. The test can be described thus: Antimalarial activity against Plasmodium falciparum 3D7 infected in erythrocytes assessed as inhibition of parasite growth incubated for 48 hrs by SYBR-Green I fluorescence-based assay. The note with it: 3D7, Erythrocyte.
Test [6] deals with Plasmodium falciparum. The test can be described thus: Antimalarial activity against Plasmodium falciparum INDO infected in erythrocytes assessed as inhibition of parasite growth incubated for 48 hrs by SYBR-Green I fluorescence-based assay. The note with it: Erythrocyte.
Test [7] deals with Plasmodium falciparum. The test can be described thus: Antiplasmodial activity against chloroquine-sensitive erythrocyte stage Plasmodium falciparum 3D7 assessed as inhibition of parasite growth incubated for 3 days by ELISA. The note with it: 3D7, Erythrocyte, 72 h.
Test [8] has as its system Plasmodium falciparum. The test can be described thus: Antiplasmodial activity against chloroquine-resistant erythrocyte stage Plasmodium falciparum Dd2 assessed as inhibition of parasite growth incubated for 3 days by ELISA. The note with it: 72 h. (ELISA stands for enzyme-linked immunosorbent assay.)
Test [9] relates to Plasmodium falciparum. The test can be described thus: Antimalarial activity against chloroquine-sensitive Plasmodium falciparum 3D7 assessed as reduction in parasite growth.
The test system of test [10] is Plasmodium falciparum. The test can be described thus: Antimalarial activity against chloroquine-resistant Plasmodium falciparum K1 assessed as reduction in parasite growth.
Test [11] concerns Plasmodium falciparum. The test can be described thus: Antiplasmodial activity against multi-resistant Plasmodium falciparum W2 infected in erythrocytes assessed as inhibition of parasite growth incubated for 48 hrs by flow cytometry. The conditions noted are these: W2, Erythrocyte. (In general: In flow cytometry, cells or beads pass a laser one at a time.)
Setting [12] is: Plasmodium falciparum, D10, Erythrocyte, 72 h.
Setting [13] is: Plasmodium falciparum, W2, Erythrocyte, 72 h.

On to `CC1NC(C(=O)N2CCCCC2)Cc2c1[nH]c1ccccc21` (configuration not stated), for which the IC50 turned out to be 13.2 µM with Plasmodium falciparum [1] (setting [12]) and 9.6 µM in the test with Plasmodium falciparum [2] (setting [13]). In the same order, the values of `CCCCCCCC[C@@H]1N[C@@H](C(=O)NCCC(C)(C)C)Cc2c1[nH]c1ccccc21` are 4.45 µM and 4 µM. Take `Clc1ccc2[nH]c3c(NCCN4CCOCC4)nccc3c2c1`: the 50% inhibitory concentration (IC50) in the test on Plasmodium falciparum [3] turned out to be 2350 nM; with Plasmodium falciparum [4], 4950 nM. Regarding `CCOC(=O)c1cc2c([nH]c3ccccc32)c(-c2ccc(NS(=O)(=O)c3ccc(C)cc3)cc2)n1`, the IC50 came out at 3.7 µM with Plasmodium falciparum [5] and 1900 nM with Plasmodium falciparum [6]. The matching figures for `CCOC(=O)c1cc2c([nH]c3ccccc32)c(-c2ccc(NC(=O)C(C)(C)C)cc2)n1`: 3.5 µM and 2380 nM.

In the case of `C/C(=C\c1ccccc1)C(=O)NCCOc1ccc2c(c1)[nH]c1c(C)nccc12`, the IC50 with Plasmodium falciparum [7] was 6780 nM; with Plasmodium falciparum [8] it was 19500 nM. As for `COC(=O)c1cc2c3ccccc3n3c2c(n1)C(c1ccccc1)OC(C)=C3` (configuration not stated), the IC50 in the test with Plasmodium falciparum [9] and with Plasmodium falciparum [10] was > 5 µM each time.

As for `COC(=O)c1cc2c3ccccc3n3c2c(n1)COC(C)=C3`, in the test on Plasmodium falciparum [9], the IC50 is > 5 µM. Consider `CCOC(=O)c1cc2c([nH]c3ccccc32)c(-c2ccc(/N=C(/Nc3ccc(OC(F)(F)F)cc3)NC3CC3)cc2)n1`, for which the results for the IC50 with Plasmodium falciparum [5] and in the test with Plasmodium falciparum [6] were 1 µM and 770 nM, respectively.

In the case of `Clc1ccc2[nH]c3c(N4CCC(N5CCOCC5)CC4)nccc3c2c1`, the IC50 came to 5320 nM in the test with Plasmodium falciparum [3] and 1900 nM in the test on Plasmodium falciparum [4]. Turning to `COc1ccc2c3ccnc(C)c3n(CCNC(=O)/C=C/c3ccc(Cl)cc3)c2c1`, the IC50 in the test with Plasmodium falciparum [7] amounted to 40 nM; with Plasmodium falciparum [8], 170 nM.

For the molecule `O=C(NCCCN1CCOCC1)C1Cc2c([nH]c3ccccc23)C(c2ccc(Cl)cc2)N1` (configuration not stated), the IC50 in the test with Plasmodium falciparum [1] (setting [12]) came out at 11.5 µM; with Plasmodium falciparum [2] (setting [13]) it was 6.15 µM. Regarding `Clc1ccc2[nH]c3c(NCCCn4ccnc4)nccc3c2c1`, the IC50 with Plasmodium falciparum [3] was determined as 450 nM; in the test with Plasmodium falciparum [4], 920 nM. For the molecule `CCC1NC(C(=O)NC23CC4CC(CC(C4)C2)C3)Cc2c1[nH]c1ccccc21` (configuration not stated), the concentration for half-maximal inhibition (IC50) stood at 9.73 µM in the test with Plasmodium falciparum [1] (setting [12]) and 11.4 µM in the test on Plasmodium falciparum [2] (setting [13]). For `COC(=O)c1cc2c3cc(Cl)ccc3n3c2c(n1)COC(C)=C3`, the IC50 with Plasmodium falciparum [9] was 1.78 µM; in the test on Plasmodium falciparum [10] it was 2.45 µM. On to `Cc1nccc2c1[nH]c1cc(OCCNC(=O)/C=C/c3ccccc3F)ccc12`, for which the IC50 with Plasmodium falciparum [7] amounted to 930 nM; in the test on Plasmodium falciparum [8] it was 3920 nM. Take `CCOC(=O)c1cc2c([nH]c3ccccc32)c(-c2ccc(/N=C(/Nc3ccc(OC)cc3)NC3CC3)cc2)n1`: the 50% inhibitory concentration (IC50) in the test on Plasmodium falciparum [5] amounted to 7.6 µM; in the test with Plasmodium falciparum [6], 1200 nM. The matching figures for `CCOC(=O)c1cc2c([nH]c3ccccc32)c(-c2ccc(NC(=S)Nc3ccc(OC(F)(F)F)cc3)cc2)n1`: 18.7 µM and 390 nM. Turning to `CCN(CC)CCCC(C)Nc1nccc2c1[nH]c1ccc(Cl)cc12` (configuration not stated), the IC50 was 170 nM with Plasmodium falciparum [3] and 240 nM in the test with Plasmodium falciparum [4]. As for `Cc1nccc2c1[nH]c1cc(OCCNC(=O)/C=C/c3ccc(Cl)cc3)ccc12`, the IC50 with Plasmodium falciparum [7] came out at 320 nM; in the test with Plasmodium falciparum [8], 400 nM. The matching figures for `Cc1nccc2c1[nH]c1cc(OCCNC(=O)/C=C/c3ccc(F)cc3)ccc12`: 150 nM and 690 nM. In the case of `Cc1nccc2c1[nH]c1cc(OCCNC(=O)/C=C/c3ccccc3)ccc12`, the figures for the IC50 with Plasmodium falciparum [7] and in the test with Plasmodium falciparum [8] were 980 nM and 4700 nM, respectively.

Consider `CC(C)(C)CC(C)(C)NC(=O)C1Cc2c([nH]c3ccccc23)C(c2ccc(Cl)cc2)N1` (configuration not stated), for which the results for the IC50 with Plasmodium falciparum [1] (setting [12]) and in the test with Plasmodium falciparum [2] (setting [13]) were 8.41 µM and 6.41 µM, respectively. Regarding `C/C=C\CC1OC(C)=Cn2c3ccccc3c3cc(C(=O)OC)nc1c32` (configuration not stated), in the test on Plasmodium falciparum [9], the IC50 is > 5 µM. As to `COc1ccc2c3ccnc(C)c3n(CCNC(=O)/C=C/c3ccccc3)c2c1`, the concentration for half-maximal inhibition (IC50) in the test with Plasmodium falciparum [7] stood at 490 nM; in the test with Plasmodium falciparum [8], 1110 nM. Consider `C=C(C#N)C1OC(C)=Cn2c3ccccc3c3cc(C(=O)OC)nc1c32` (configuration not stated), for which the IC50 with Plasmodium falciparum [9] was > 5 µM. On to `C=CCC1OC(C)=Cn2c3ccc(Cl)cc3c3cc(C(=O)OC)nc1c32` (configuration not stated), for which the IC50 with Plasmodium falciparum [9] and in the test on Plasmodium falciparum [10] was > 5 µM in each case.

Take `CCOC(=O)c1cc2c([nH]c3ccccc32)c(-c2ccc(NC(=S)Nc3ccc(OC)cc3)cc2)n1`: the results for the IC50 in the test on Plasmodium falciparum [5] and in the test with Plasmodium falciparum [6] were 1.6 µM and 1800 nM, respectively.

Regarding `Fc1ccc2[nH]c3c(NCCCn4ccnc4)nccc3c2c1`, the 50% inhibitory concentration (IC50) in the test with Plasmodium falciparum [3] is 200 nM; with Plasmodium falciparum [4], 410 nM. As for `N#Cc1ccc(C2NCCc3c2[nH]c2ccccc32)cc1` (configuration not stated), in the test with Plasmodium falciparum [11], the IC50 is 1100 nM. For the molecule `O=C(NC1CCCCC1)C1Cc2c([nH]c3ccccc23)C(c2ccc(Cl)cc2)N1` (racemic; form 1), the values for the half-maximal inhibitory concentration (IC50) in the test with Plasmodium falciparum [1] (setting [12]) and with Plasmodium falciparum [2] (setting [13]) were 16.1 µM and 13.5 µM, respectively. In the case of `O=C(NC1CCCCC1)C1Cc2c([nH]c3ccccc23)C(c2ccc(Cl)cc2)N1` (racemic; form 2), the figures for the IC50 with Plasmodium falciparum [1] (rbc) and with Plasmodium falciparum [2] (rbc) were 12.5 µM and 9.13 µM, respectively.

In the case of `Nc1nccc(-c2nccc3c2[nH]c2ccccc23)n1` [ANNOMONTINE], the figures for the IC50 with Plasmodium falciparum [5] and in the test with Plasmodium falciparum [6] were 3.44 µM and 3060 nM, respectively.

As usually defined, the IC50 is the concentration that gives 50% inhibition.

(Values after ChEMBL document CHEMBL5360542, “Current development of β-carboline derived potential antimalarial scaffolds” (Eur J Med Chem, 2023).)
